Source: PubChem BioAssay AID179 (DTP/NCI, 2004)
Several values for one entry are separate records, joined by “and”; a condition that tells them apart may be missing. Identical values can stand only once. Activity calls are given as the source filed them.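 The calls were made as follows: active = compounds giving half or more protection of infected cells from virus-caused growth loss, again on retest; inactive = the rest.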

Test system: CEM cells HIV-1 protection, formazan growth assay
Test: NCI AIDS Antiviral Assay
Conditions: for IC50: measured here: growth of uninfected CEM cells
Summary of the method: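 Human CEM cells, uninfected and HIV-1-infected, received five drug concentrations, and growth was read by soluble formazan assay. Compounds giving at least 50% protection were retested; reproducible 100% protection defined confirmed active.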

Structure (SMILES) | EC50 | IC50 | outcome
CN(C)c1ccc(/C=C/C=C(/C#N)c2ccccc2)cc1 | > 100 µM | 12.3 µM | –
Cc1cc(-c2no[n+]([O-])c2-c2cc(C)sc2S(C)(=O)=O)c(S(C)(=O)=O)s1 | > 200 µM | > 200 µM | –
CC1=C/C(=N\OCC(=O)O)CC(c2ccc(C(C)C)cc2)C1 (configuration not stated) | > 200 µM | 97.7 µM | –
COc1ccccc1NC(=S)NNC(=O)c1cc(-c2ccccc2)nc2ccccc12 | > 200 µM | 11.5 µM | –
CCn1cnc2[nH]cc(C#N)c2c1=O | > 200 µM | > 200 µM | –
CCOC(=O)C1=C(O)c2c(sc(C)c2C)N(S(=O)(=O)c2ccc(C)cc2)CC1 | > 200 µM | 52.5 µM | –
C[CH2][Ge]([CH2]C)([CH2]C)[O]C(=O)C([O][Ge]([CH2]C)([CH2]C)[CH2]C)c1ccccc1 (configuration not stated) | > 200 µM | 20.9 µM | –
Cn1c(N=P(c2ccccc2)(c2ccccc2)c2ccccc2)c([N+](=O)[O-])c(=O)n(C)c1=O | – | – | inactive
Cc1cccc(Cl)c1NC(N)=S | > 36.3 µM | > 36.3 µM | –
Cc1cc(NCCCCCCNc2cc(C)nc3ccc(N)cc23)c2cc(N)ccc2n1 | – | 10.7 µM and 72.4 µM | –
CC1(c2ccc(Cl)cc2)OCC(CCl)O1 (configuration not stated) | > 200 µM | > 200 µM | –
CC1CCCN(CCSSCCN2CCCC(C)C2)C1 (configuration not stated) | > 200 µM | 70.8 µM | –
CO[C@@]12[C@@H]3N[C@@H]3CN1C1=C(C(=O)C(NCCc3ccccn3)=C(C)C1=O)[C@@H]2COC(N)=O | > 200 µM | 2 µM | –
CCCCNC(=S)Nc1nc(C(=O)NNC(=S)Nc2ccccc2)cs1 | 58.9 µM | > 200 µM | –
ClCCC1OC(CCCl)OC(CCCl)O1 (configuration not stated) | > 200 µM | > 200 µM | –
NC1=C(Br)C(=O)c2ncccc2C1=O | – | – | inactive
c1cnn(P2(n3cccn3)=NP(n3cccn3)(n3cccn3)=NP(n3cccn3)(n3cccn3)=NP(n3cccn3)(n3cccn3)=NP(n3cccn3)(n3cccn3)=NP(n3cccn3)(n3cccn3)=N2)c1 | > 200 µM | > 200 µM | –
C=Cc1ccccn1 | > 200 µM | > 200 µM | –
COC(=O)c1cc(C(c2cc(C)c(O)c(C(=O)OC)c2)c2cc(C)c(O)c(C(=O)OC)c2)cc(C)c1O | – | – | inactive
CCCn1c(=O)c(N2CCN(c3ccccc3)CC2)nc2sc3ccccc3c21 | > 200 µM | > 200 µM | –
CCN(CC)/[N+]([O-])=N/OCOC(C)=O | > 200 µM | 102 µM | –
NC(=O)NC1C(c2ccccc2)=NOC1C(N)=O (configuration not stated) | > 200 µM | > 200 µM | –

Structure (SMILES) | EC50 | IC50 | outcome
CS(=O)(=O)OCC1OC(n2ccc(NC(=O)c3ccccc3)nc2=O)CC1OS(C)(=O)=O (configuration not stated) | > 200 µM | > 200 µM | –
C[C@H](CCCN1CCCCC1)[C@H]1CC[C@H]2[C@@H]3CC[C@@H]4C[C@H](O)CC[C@]4(C)[C@H]3CC[C@]12C | > 50.1 µM | 1.82 µM | –
O=C(O)CCCCCCCC(=O)O | > 1320 µM | > 1320 µM | –
CCCCCCCCCCCCCCCCCCSCC(COP(=O)(O)OP(=O)(O)OCC1OC(n2ccc(=O)[nH]c2=O)CC1N=[N+]=[N-])OC(=O)CCCCCCCCCCCCCCC (configuration not stated) | > 209 µM | 186 µM | –
COC(=O)c1ccc(/C=C2\CCc3ccccc3C2=O)cc1 | > 200 µM | > 200 µM | –
CCOC(=O)/C(=C/c1ccco1)C(=O)c1ccccc1 | > 132 µM | 77.6 µM | –
COc1ccc2oc3c(OC)c(OC)c(OC)cc3c(=O)c2c1 | > 8.71 µM | – | –
C1=C(c2ccccc2)N2CCCNC2(c2ccccc2)CS1 (configuration not stated) | > 200 µM | 132 µM | –
O=C1NC(=O)/C(=C/c2ccc(S(=O)(=O)N/N=C/c3ccccc3)cc2)N1 | > 200 µM | > 200 µM | –
Clc1ccc(Cl)c2[s+]snc12 | > 14.5 µM | > 14.5 µM | –
O=P1(Nc2ccccc2)NCCCO1 (configuration not stated) | > 200 µM | > 200 µM | –
Cc1ccc(C)c(C(=O)CC2OC(O)C(Cl)C2Cl)c1 (configuration not stated) | > 117 µM | 64.6 µM | –
COc1ccc(/C(C#N)=C(/N)SCc2ccccc2Cl)cc1 | – | – | inactive
CCCCCCCCCCCCC(C(=O)O)C(=O)O | > 251 µM | > 251 µM | –
CCC[CH2][Sn]1([CH2]CCC)[O]C(=O)c2cccnc2[O]1 | > 97.7 µM | 0.0977 µM | –
O=c1cc2ccccc2nn1-c1ccccc1Cl | > 263 µM | 110 µM | –
CCCC(=O)Nc1ccc2c(ccn2COC)c1 | > 200 µM | > 200 µM | –
Cc1cc(=O)c2c(O)c3c(O)cc(O)c4c5c(O)cc(O)c6c(O)c7c(=O)cc(C)c8c1c2c(c34)c(c65)c78 | > 100 µM | – | –
CC(C)(CCCCC(C)(C)NCC1COc2ccccc2O1)NCC1COc2ccccc2O1 (configuration not stated) | > 200 µM | 7.24 µM | –
CC=C=CCN(C)Cc1ccccc1 | > 324 µM | > 324 µM | –
O=S(=O)(Nc1nc2ccccc2nc1Nc1ccc2ccccc2c1)c1ccccc1 | > 200 µM | 10.5 µM | –
CCC(O)(COC(N)=O)c1ccccc1 (configuration not stated) | > 200 µM | > 200 µM | –

Structure (SMILES) | EC50 | IC50 | outcome
NC(Cc1ccc(S(=O)(=O)O)cc1)C(=O)NC(Cc1ccc(S(=O)(=O)O)cc1)C(=O)O (configuration not stated) | > 200 µM | > 200 µM | –
CC(=O)Oc1c(Br)ccc2cc(C(Br)Br)c(C(=O)c3ccccc3)nc12 | > 5.01 µM | > 5.01 µM | –
CN1N=CSC12C(=O)N(c1ccccc1)C(=O)N2c1ccccc1 (configuration not stated) | – | – | inactive
CC(=O)NC(C)(C)C | – | – | inactive
C=CCn1c(-c2ccccc2)nn(CC(=O)Nn2c(C)nc3ccccc3c2=O)c1=S | – | – | inactive
CC1=CCC(C)=Nc2nc3ccccc3n21 | > 200 µM | > 200 µM | –
CC(C)CCCC(C)[C@H]1CC[C@H]2[C@@H]3CC[C@H]4C[C@@H](CCC=C(c5cc(Cl)c(O)c(C(=O)OC(C)C)c5)c5cc(Cl)c(O)c(C(=O)OC(C)C)c5)CC[C@]4(C)[C@H]3CC[C@]12C (some centres not stated) | 67.6 µM | 151 µM | –
CC1(C)C2CCC(C2)C1/C=C1/SC(=S)NC1=O (configuration not stated) | > 200 µM | 10 µM | –
CCN(CC)CCOC(=O)c1cc2cc([N+](=O)[O-])ccc2oc1=O | > 214 µM | > 214 µM | –
C=CCCC1(CCP(=O)(c2ccccc2)c2ccccc2)OCCO1 | > 708 µM | 155 µM | –
Cc1c(N=Nc2ccccc2)c(C)n(C2OC(CO)C(O)C(O)C2O)c(=S)c1C#N (configuration not stated) | > 200 µM | 22.9 µM | –
COc1cccc(CN2CC(C)N(N=Cc3c4c(O)c5c(O)c(C)c6c(c5c3O)C(=O)C(C)(O/C=C/C(OC)C(C)C(OC(C)=O)C(C)C(O)C(C)C(O)C(C)/C=C/C=C(\C)C(=O)N4)O6)C(C)C2)c1 (configuration not stated) | > 200 µM | 7.24 µM | –
COS(=O)(=O)OCCC(NC(=O)OCc1ccccc1)C(=O)OCc1ccccc1 (configuration not stated) | > 83.2 µM | > 83.2 µM | –
CCOc1nc(-c2ccccc2)cc(-c2ccc(N3CCOCC3)cc2)c1C#N | > 200 µM | 112 µM | –
COC(=O)/C=C/c1cc(OC)c(OC)c(OC)c1 | > 251 µM | 170 µM | –
COC(=O)c1cc(C(=O)c2cc(C)c(OC)c(C(=O)OC)c2)cc(C)c1OC | > 200 µM | 66.1 µM | –
O=C1NC(CO)(CO)CO1 | > 200 µM | > 200 µM | –
CCC1=CC(OCc2ccccc2)C(CCN(Cc2ccccc2)C(=O)OCc2ccccc2)C1 (configuration not stated) | > 200 µM | 9.55 µM | –
N#CCCN(CCC#N)C(=O)c1cccc(C(=O)N(CCC#N)CCC#N)c1 | – | – | inactive
COc1ccc(C2c3cc4c(cc3OC(N3CCOCC3)C2C)OCO4)c(OC)c1 (configuration not stated) | > 200 µM | 3.31 µM | –
